Like-named read-outs stand apart in the source and are kept apart here.
Experiments:
MDA-MB-468 [1] = assay: Test Example 2 in vitro cytotoxic activity screening (CTG); format: cell-based; conditions: for IC50: Homo sapiens
Experimental: (§1) The CTG is used for detecting the ATP content in the experiment, and the survival condition of the tumor cells is reflected.
(§2) A549, SKBR3 and MDA-MB-468 were digested with trypsin, and each was resuspended in culture medium to a cell density of 2.2×10^4 cells/mL, and 135 μL of cell suspension was added to each well in columns 2 to 11 of a 96-well plate, and column 12 was set as blank control. The cells were incubated in an incubator for 24 h at 37° C. with 5% CO2.
(§3) a) Stock solution preparation: the test compound and positive control drug were dissolved in DMSO to give a stock solution at a concentration of 5 mM.
(§4) b) Drug preparation plate 1: stock solution in column 1 was initially diluted 40-fold, and 3-fold gradient dilutions were performed sequentially in column 2 to column 11. Column 12 was filled with DMSO.
(§5) c) Drug preparation plate 2: 196 μL of the corresponding culture medium was added into columns 2 to 11, and 4 μL of culture medium was pipetted from column 3 to column 12 of drug preparation plate 1 to column 2 to column 11 of drug preparation plate
(§6) 15 μL of culture medium was pipetted from the drug preparation plate 2 and added into the plated cells. The cells were continuously incubated in an incubator for 5 h at 37° C. with 5% CO2.
(§7) 2.4) CTG assay (Cell Titer-Glo™, luminescent cell viability assay): the cell plates were removed and balanced to room temperature. 75 μL of CTG was added into each well and reacted at room temperature for 10 min in the dark. The absorption value was read using a microplate reader and IC50 was calculated.

A549 [2] = assay: as above; format: cell-based; conditions: for IC50: Homo sapiens
Experimental: as §1, §2, §3, §4, §5, §6, §7

SKBR3 = assay: as above; format: cell-based; conditions: for IC50: Homo sapiens
Experimental: as §1, §2, §3, §4, §5, §6, §7

A549 [3] = assay: Test Example 1 in vitro cytotoxic activity screening (CTG); format: cell-based, human; conditions: Homo sapiens
Experimental: (§8) The CTG is used for detecting the ATP content in the experiment, and the survival condition of the tumor cells is reflected. […] The killing effect of the toxin molecule was then assayed according to this condition. 1.2. Selection of cell lines
(§9) According to the purpose of the experiment, two disease models of breast cancer and NSCLC were selected, and SKBR3 tumor cells (HER2+, ATCC, Cat #HTB-30), MDA-MB-468 (HER2-, ATCC, Cat #HTB-132) and A549 (human non-small cell lung cancer cells, ATCC, Cat #CCL-185) were selected for screening.
(§10) 2) Cell plating: A549 cells were digested with trypsin, and the cells were terminated with the above medium, and 4.3×10^5, 7.2×10^5 and 11.5×10^5 cells were added to the medium to give a final volume of 26 mL. 180 μL of cell suspension was added to each well in columns 2 to 11 of a 96-well plate (coming, Cat #3903) to give cell densities of 3K, 5K and 8K per well. Wells in column 12 were filled with 200 μL of culture medium and the remaining wells were filled with PBS. The above operations were repeated on the SKBR3 and MDA-MB-468 cells. The sample was duplicated.
(§11) 2 mM of stock solution (stock diluted 10-fold in DMSO) was prepared in column 1 of drug preparation plate 1, then 10-fold dilution in DMSO by gradient was performed in column 10, and the wells in column 11 were filled with DMSO. 95 μL of corresponding culture solution was added into each well from column 2 to column 11 of the drug preparation plate 2, 5 μL of solution was pipetted from column 2 to column 11 of drug preparation plate 1 to drug preparation plate 2, the solution was mixed well, 20 μL of solution was pipetted, added into the plated cells, and continuously cultured for 3 days and 5 days.
as §7, with “4)” for “2.4)”, “assay, Promega):” for “assay):”, “removed on day 3 and day 5,” for “removed”, “90” for “75”

MDA-MB-468 [4] = assay: as above; format: cell-based; conditions: Homo sapiens
Experimental: as §8, §9, §10, §11
as §7, with “4)” for “2.4)”, “assay, Promega):” for “assay):”, “removed on day 3 and day 5,” for “removed”, “90” for “75”

SKBR3 tumor cells = assay: as above; format: cell-based; conditions: Homo sapiens, SK-BR-3
Experimental: as §8, §9, §10, §11
as §7, with “4)” for “2.4)”, “assay, Promega):” for “assay):”, “removed on day 3 and day 5,” for “removed”, “90” for “75”

[5] = SK-BR-3, SKBR3, CTG, incubated 5 h, read-out: IC50
[6] = MDA-MB-468, CTG, read-out: IC50

Row | Compound | Maximum inhibition (MDA-MB-468 [1]; MDA-MB-468, CTG, incubated 5 h) | Maximum inhibition (A549 [2]; A549, CTG, incubated 5 h) | Maximum inhibition (SKBR3; SKBR3, CTG, incubated 5 h) | IC50 (A549 [3]; A549, CTG, read-out: IC50) | IC50 (MDA-MB-468 [4]; [6]) | IC50 (SKBR3 tumor cells; SKBR3, CTG, read-out: IC50) | also measured
1 | C=C1C[C@@H]2CC[C@@]34C[C@H]5O[C@H]6[C@@H](O3)[C@H]3O[C@H](CC[C@@H]3O[C@H]6[C@H]5O4)CC(=O)C[C@@H]3[C@@H](OC)[C@@H](C[C@H](O)CNC)O[C@H]3C[C@H]3O[C@@H](CC[C@@H]1O2)C[C@@H](C)C3=C [Compound E-305, reference compound] | 88.53% | 61.27% | 96.42% |  |  |  | IC50 (MDA-MB-468 [1]; MDA-MB-468, 5 h): 1.17 nM; IC50 (A549 [2]; A549, 5 h): 2.1 nM; IC50 (SKBR3; [5]): 0.571 nM
2 | C=C1C[C@@H]2CC[C@@]34C[C@H]5O[C@H]6[C@@H](O3)[C@H]3O[C@H](CC[C@@H]3O[C@H]6[C@H]5O4)CC(=O)C[C@@H]3[C@@H](OC)[C@@H](C[C@H](O)CNC(=O)[C@H](O)C4CC4)O[C@H]3C[C@H]3O[C@@H](CC[C@@H]1O2)C[C@@H](C)C3=C [Compound D-2] |  |  |  | 3.16 nM | 0.909 nM | 0.839 nM | 
3 | C=C1C[C@@H]2CC[C@@]34C[C@H]5O[C@H]6[C@@H](O3)[C@H]3O[C@H](CC[C@@H]3O[C@H]6[C@H]5O4)CC(=O)C[C@@H]3[C@@H](OC)[C@@H](C[C@@H](CNC(=O)[C@H](O)C4CC4)OC)O[C@H]3C[C@H]3O[C@@H](CC[C@@H]1O2)C[C@@H](C)C3=C [Compound D-3] | 90.94% | 63.03% | 96.36% |  |  |  | IC50 (A549 [3]; A549): 5.14 nM; IC50 (MDA-MB-468 [4]; MDA-MB-468): 1.67 nM; IC50 (SKBR3 tumor cells): 1.36 nM; IC50 (MDA-MB-468 [1]; MDA-MB-468, 5 h): 1.98 nM; IC50 (A549 [2]; A549, 5 h): 2.17 nM; IC50 (SKBR3; SK-BR-3, 5 h): 1.18 nM
4 | C=C1C[C@@H]2CC[C@]34C[C@@H]5O[C@H]6[C@@H](O3)[C@@H]3O[C@H](CC[C@@H]3O[C@@H]6[C@H]5O4)CC(=O)C[C@@H]3[C@H](OC)[C@@H](C[C@H](O)CNC(=O)CO)O[C@H]3C[C@H]3O[C@@H](CC[C@@H]1O2)C[C@H](C)C3=C [Compound D-4] | 89.43% | 62.09% | 96.85% | 5.61 nM | 1.78 nM | 1.3 nM | IC50 (MDA-MB-468 [1]; MDA-MB-468, CTG, incubated 5 h, read-out: IC50): 1.88 nM; IC50 (A549 [2]; A549, CTG, incubated 5 h, read-out: IC50): 3.08 nM; IC50 (SKBR3; [5]): 1.09 nM
5 | C=C1C[C@@H]2CC[C@@]34C[C@H]5O[C@H]6[C@@H](O3)[C@H]3O[C@H](CC[C@@H]3O[C@H]6[C@H]5O4)CC(=O)C[C@@H]3[C@@H](OC)[C@@H](C[C@H](O)CNC(=O)C4(O)CC4)O[C@H]3C[C@H]3O[C@@H](CC[C@@H]1O2)C[C@@H](C)C3=C [Compound D-5] |  |  |  | 4.02 nM |  | 0.383 nM | 
6 | C=C1C[C@@H]2CC[C@@]34C[C@H]5O[C@H]6[C@@H](O3)[C@H]3O[C@H](CC[C@@H]3O[C@H]6[C@H]5O4)CC(=O)C[C@@H]3[C@@H](OC)[C@@H](C[C@H](O)COC(=O)c4ccc(CO)cc4)O[C@H]3C[C@H]3O[C@@H](CC[C@@H]1O2)C[C@@H](C)C3=C [Compound D-8] |  |  |  | 0.811 nM | 0.843 nM | 0.33 nM | 
7 | C=C1C[C@@H]2CC[C@@]34C[C@H]5O[C@H]6[C@@H](O3)[C@H]3O[C@H](CC[C@@H]3O[C@H]6[C@H]5O4)CC(=O)C[C@@H]3[C@@H](OC)[C@@H](C[C@H](O)COC(=O)C4(O)CC4)O[C@H]3C[C@H]3O[C@@H](CC[C@@H]1O2)C[C@@H](C)C3=C [Compound D-7] |  |  |  | 1.78 nM | 0.903 nM | 0.481 nM | 
8 | C=C1C[C@@H]2CC[C@@]34C[C@H]5O[C@H]6[C@@H](O3)[C@H]3O[C@H](CC[C@@H]3O[C@H]6[C@H]5O4)CC(=O)C[C@@H]3[C@@H](OC)[C@@H](C[C@H](O)COC(=O)[C@H](O)C4CC4)O[C@H]3C[C@H]3O[C@@H](CC[C@@H]1O2)C[C@@H](C)C3=C [Compound D-6] |  |  |  | 1.85 nM | 0.996 nM | 0.294 nM | 

Reference: patent US20230144203A1 (SHANGHAI SENHUI MEDICINE CO., LTD., priority 2020, published 2023)
